Measured values: patent publication EP1081131A1 (priority 1998, dated 1999)

Experiments:
Assay type in all cases: cell-based, mycobacteria of tuberculosis
[1] = tested on: Strain resistant to streptomycin and rifamycin; settings: taken from patients, Sverdlovsk Regional SRI of Phthisiopulmonology 1998
[2] = tested on: Strain resistant to isoniazid; settings: taken from patients, Sverdlovsk Regional SRI of Phthisiopulmonology 1998
[3] = tested on: Resistant to streptomycin; assay: Bacteriostatic activity on patient strains (Table 4); settings: taken from patients, Central SRI of Tuberculosis RAMS 1997
Resistant to rifamycin = assay: as above; settings: taken from patients, Central SRI of Tuberculosis RAMS 1997
Resistant to isoniazid = assay: as above; settings: taken from patients, Central SRI of Tuberculosis RAMS 1997
[4] = tested on: Semiresistant (resistant to streptomycin, rifamycin and isoniazid); assay: as above; settings: taken from patients, Central SRI of Tuberculosis RAMS 1997

Row | SMILES | Inhibiting level [1] [µg/mL] | Inhibiting level [2] [µg/mL] | Inhibiting level [3] [µg/mL] | Inhibiting level (Resistant to rifamycin) [µg/mL] | Inhibiting level (Resistant to isoniazid) [µg/mL] | Inhibiting level [4] [µg/mL]
1 | O=Cc1ccc(Cl)cc1OCCOc1cc(Cl)ccc1C=O [1,2-Bis(2-formyl-5-chlorphenoxy)-ethane] | 0.4 | 5.0 | – | – | – | –
2 | COc1cc(C=NNC(=O)c2ccccc2)ccc1OCCOc1ccc(C=NNC(=O)c2ccccc2)cc1OC [1,2-Bis(2-methoxy-4-benzoyl hydrazonomethylphenoxy)-ethane] | 0.8 | >5.0 | – | – | – | –
3 | O=C(NN=Cc1c(OCCOc2ccc3ccccc3c2C=NNC(=O)c2ccccc2)ccc2ccccc12)c1ccccc1 [1,2-Bis[2(benzoyl hydrazonomethylnaphthoxy-2)]-ethane] | 0.4 | 5.0 | – | – | – | –
4 | O=C(NN=Cc1ccccc1OCCOCCOc1ccccc1C=NNC(=O)c1ccncc1)c1ccncc1 [1,5-Bis(2-isonicotinoyl hydrazonomethylphenoxy)-3-oxapentane] | – | – | 1.56 | 0.20 | 18.80 | 1.57
5 | O=C(NN=Cc1ccccc1OCCCCOCCCCOc1ccccc1C=NNC(=O)c1cccnc1)c1cccnc1 [1,9-Bis(2-nicotinoyl hydrazonomethylphenoxy)-5-oxanonon] | 0.4 | >5.0 | – | – | – | –
6 | NNC(=O)c1ccncc1 [Isoniazid, hydrazide of isonicotinic acid, reference compound] | 0.1 | 5.0 | 0.29 | 0.29 | >100 | 2.125
7 | CO[C@H]1/C=C/O[C@@]2(C)Oc3c(C)c(O)c4c(O)c(cc(O)c4c3C2=O)NC(=O)/C(C)=C\C=C\[C@H](C)[C@H](O)[C@@H](C)[C@@H](O)[C@@H](C)[C@H](OC(C)=O)[C@@H]1C [Rifamycin, reference compound] | 20.0 | – | – | – | – | –
8 | [H]/N=C(/N)N[C@H]1[C@H](O)[C@@H](O)[C@H](O[C@@H]2O[C@@H](C)[C@](O)(C=O)[C@H]2O[C@@H]2O[C@@H](CO)[C@H](O)[C@@H](O)[C@@H]2NC)[C@@H](N/C(N)=N\[H])[C@@H]1O [Streptomycin, reference compound] | 10.0 | >50.0 | – | – | – | –
